# Results reported in patent US8901142B2, “Fused tricyclic compounds as mTOR inhibitors” (Merck Sharp & Dohme Corp., priority 2011, dated 2014).
# Experiments:
# [1] = system: mTORC2 (pAKT S473) in PC3 cells; assay: mTOR target engagement assay, immunofluorescent cell-based, mTORC2 activity by reduction of pAKT S473; conditions: Homo sapiens, PC-3, ninety minutes at 37° C., immunofluorescence
# Procedure: (§1) The target engagement of mTOR kinase inhibitors was evaluated using an immunofluorescent cell-based assay. In this assay, inhibition of mTORC1 activity was measured by the reduction in the level of phosphorylated 4E-BP1Thr37/46 (p4E-BP1 Thr37/46), and inhibition of mTORC2 activity was measured by the reduction of phosphorylated AKTSer473 (pAKT S473).
# (§2) PC3 cells (prostate tumor cell-line that contains a mutation in the tumor suppressor PTEN, that promotes the phosphorylation and activation of AKT and 4E-BP 1) were used in the immunofluorescence assay. PC3 cells were seeded on 384 well plates (black clear bottom, Matrix #4332) overnight. PC3 cells were then treated with 40 μl of the serially diluted test compounds (in 5% fetal bovine serum, F12 medium containing 0.25% DMSO) for ninety minutes at 37° C. The test compound solution was removed, and the plates were washed gently two times with 25 μl phosphate buffered saline (PBS). The cells were fixed by adding 25 μl of Prefer reagent (from Anatech LTD, Cat#414, a glyoxal fixative for fixing proteins within a cell) for sixty minutes followed by three washes with PBS. 5% Goat serum in PBS/0.3% Triton was used to block non-specific binding (60 minutes).
# (§3) The primary antibodies targeting pAKT S473 and p4E-BP1 Thr37/46 were diluted into PBS/0.3% Triton and incubated with the cells overnight at 4° C. The antibodies targeting pAKTS473 (Cat#4085, Cell signaling) and p4E-BP1 Thr37/46 (Cat#2855, Cell signaling) were used at a 1:100 dilution. Plates were washed three times with PBS/0.1% Tween 20 before adding the secondary antibody at a 1:200 dilution. (goat anti-rabbit containing a fluorescent label, Alexa Fluor 488, Cat# A11008, Invitrogen) in PBS/0.3% Triton for 60 minutes.
# (§4) Finally, the plates were washed three times with PBS/0.1% Tween 20 and the fluorescent intensity was read using an Analyst HT from Molecular Devices. The fluorescent intensity values from the serially diluted compound treatment group were analyzed using the Xlfit 4 program ([…]) (Formula 205: Y=Bottom+(Top-Bottom)/(1+(IC50/X)^Hillslope) to generate the IC50 value. Where Top is the maximum signal without Compound (+DMSO only) and Bottom represents maximum inhibition. Y is the fluorescence at some compound concentration. The control used to determine the fluorescent intensities for 100% pAKT S473 or 100% phosphorylated p4E-BP1 Thr37/46 were measured from untreated wells that contained only DMSO, instead of test compound.
# [2] = system: mTORC1 (p4E-BP1 Thr37/46) in PC3 cells; assay: mTOR target engagement assay, immunofluorescent cell-based, mTORC1 activity by reduction of p4E-BP1 Thr37/46; conditions: Homo sapiens, PC-3, ninety minutes at 37° C., immunofluorescence
# Procedure: as §1, §2, §3, §4
Structure (SMILES),IC50 [1] [µM],IC50 [2] [µM]
"CC(C)(O)c1ccc(-c2cnn3c2nc([C@@H]2C[C@H]4CC[C@@H](C2)N4C(=O)c2nnc[nH]2)c2cc[nH]c23)cn1 [Example 3, ((1R,3s,5S)-3-(3-(6-(2-hydroxypropan-2-yl)pyridin-3-yl)-8H-pyrazolo[1,5-a]pyrrolo[3,2-e]pyrimidin-5-yl)-8-azabicyclo[3.2.1]octan-8-yl)(1H-1,2,4-triazol-3-yl)methanone]",0.1 to 1,0.1 to 1
"Cc1n[nH]c2c1c([C@@H]1C[C@H]3CC[C@@H](C1)N3C(=O)c1nnc[nH]1)nc1c(-c3ccc(-c4ccccc4)nc3)cnn12 [Example 1, ((1R,3s,5S)-3-(3-methyl-6-(6-phenylpyridin-3-yl)-1H-dipyrazolo[1,5-a:4′,3′-e]pyrimidin-4-yl)-8-azabicyclo[3.2.1]octan-8-yl)(4H-1,2,4-triazol-3-yl)methanone]",0.001 to 0.1,0.1 to 1
"O=C(c1nnc[nH]1)N1[C@@H]2CC[C@H]1C[C@H](c1nc3c(-c4ccc(-c5ccccc5)nc4)cnn3c3[nH]ccc13)C2 [Example 2, ((1R,3s,5S)-3-(3-(6-phenylpyridin-3-yl)-8H-pyrazolo[1,5-a]pyrrolo[3,2-e]pyrimidin-5-yl)-8-azabicyclo[3.2.1]octan-8-yl)(4H-1,2,4-triazol-3-yl)methanone]",0.001 to 0.1,0.001 to 0.1
"O=C(c1nnc[nH]1)N1[C@@H]2CC[C@H]1C[C@H](c1nc3c(-c4ccc(-c5ncc[nH]5)nc4)cnn3c3[nH]ccc13)C2 [Example 6, ((1R,3s,5S)-3-(3-(6-(1H-imidazol-2-yl)pyridin-3-yl)-8H-pyrazolo[1,5-a]pyrrolo[3,2-e]pyrimidin-5-yl)-8-azabicyclo[3.2.1]octan-8-yl)(4H-1,2,4-triazol-3-yl)methanone]",0.001 to 0.1,0.001 to 0.1
"CC(C)(O)c1ccc(-c2cnn3c2nc([C@@H]2C[C@H]4CC[C@@H](C2)N4C(=O)CO)c2cc[nH]c23)cn1 [Example 4, 2-hydroxy-1-((1R,3s,5S)-3-(3-(6-(2-hydroxypropan-2-yl)pyridin-3-yl)-8H-pyrazolo[1,5-a]pyrrolo[3,2-e]pyrimidin-5-yl)-8-azabicyclo[3.2.1]octan-8-yl)ethanone]",1 to 2,0.1 to 1
"O=C(CO)N1[C@@H]2CC[C@H]1C[C@H](c1nc3c(-c4ccc(-c5ncc[nH]5)nc4)cnn3c3[nH]ccc13)C2 [Example 5, 1-((1R,3s,5S)-3-(3-(6-(1H-imidazol-2-yl)pyridin-3-yl)-8H-pyrazolo[1,5-a]pyrrolo[3,2-e]pyrimidin-5-yl)-8-azabicyclo[3.2.1]octan-8-yl)-2-hydroxyethanone]",0.001 to 0.1,0.1 to 1
